According to patent US20230085307A1, “PYRIDAZINONE COMPOUND AND HERBICIDE” (NISSAN CHEMICAL CORPORATION, priority 2019, published 2023):

Legend:
[1] = tested on: oval-leafed pondweed; assay: Test Example 1: herbicidal activity, application before weed generation under submerged conditions (Table 16, symbol C); type: in vivo, oval-leafed pondweed (Monochoria vaginalis); conditions: amount of applied herbicide 320 g/ha
Outline: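 Emulsion formulation, water-diluted to set dose, was put onto the flooded surface (4 cm depth, alluvial soil) the same day weeds were sown and 2.5-leaf rice transplanted. After 3 weeks at 25-30 °C under glass, each species was rated 0 (≤5% kill) to 5 (≥90% kill).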

[2] = tested on: oval-leafed pondweed; assay: Test Example 2: herbicidal activity, application during weed generation under submerged conditions (Table 17, symbol C); type: in vivo, oval-leafed pondweed (Monochoria vaginalis); conditions: AAH 320 g/ha; application during weed generation, submerged conditions
Outline: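 Alluvial soil in Wagner pots was flooded to 4 cm depth and sown with the three weeds together; pots were kept in a greenhouse at 25° C. to 30° C. At the one to two leaf stage, an emulsion formulation diluted in water to a set rate went onto the water surface; scored three weeks later.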

[3] = tested on: Chinese sprangletop; assay: Test Example 3: herbicidal effect by foliage application, Wagner pot (Table 18, symbol D); type: in vivo, chinese sprangletop (Leptochloa chinensis); conditions: for herbicidal effect on D: Chinese sprangletop: amount of applied herbicide 320 g/ha
Outline: (§1)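 Plants were sown in alluvial soil held under 0.1–0.5 cm standing water and grown 14 days in a greenhouse at 25–30 °C. An emulsifiable formulation, water-diluted to the set dose, was then sprayed onto the foliage, and effects were scored three weeks later using previously defined criteria.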

[4] = tested on: rice flat sedge; assay: Test Example 3: herbicidal effect by foliage application, Wagner pot (Table 18, symbol E); type: in vivo, rice flat sedge (Cyperus iria); conditions: for herbicidal effect on E: rice flat sedge: amount of applied herbicide 320 g/ha
Outline: as §1

[5] = tested on: southern crabgrass; assay: Test Example 4: herbicidal effect by soil treatment (Table 19, symbol F); type: in vivo, southern crabgrass (Digitaria ciliaris); conditions: amount of applied herbicide 320 g/ha
Outline: (§2)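 Seeds were sown in sterilized diluvial soil and covered with about 1.5 cm of soil. An emulsion formulation diluted with water to a predetermined herbicide amount was sprayed evenly onto the soil surface. Plants grew in a greenhouse at 25° C. to 30° C., and the effect was scored three weeks after application using criteria from an earlier test.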

[6] = tested on: windgrass; assay: Test Example 4: herbicidal effect by soil treatment (Table 19, symbol L); type: in vivo, windgrass (Apera spica-venti); conditions: amount of applied herbicide 320 g/ha
Outline: as §2

[7] = tested on: velvetleaf; assay: Test Example 4: herbicidal effect by soil treatment (Table 19, symbol M); type: in vivo, velvetleaf (Abutilon theophrasti); conditions: amount of applied herbicide 320 g/ha
Outline: as §2

[8] = tested on: redroot pigweed; assay: Test Example 4: herbicidal effect by soil treatment (Table 19, symbol N); type: in vivo, redroot pigweed (Amaranthus retroflexus); conditions: amount of applied herbicide 320 g/ha
Outline: as §2

[9] = tested on: lambsquarters; assay: Test Example 4: herbicidal effect by soil treatment (Table 19, symbol O); type: in vivo, lambsquarters (Chenopodium album); conditions: amount of applied herbicide 320 g/ha
Outline: as §2

[10] = tested on: false cleavers; assay: Test Example 4: herbicidal effect by soil treatment (Table 19, symbol Q); type: in vivo, false cleavers (Galium spurium); conditions: amount of applied herbicide 320 g/ha
Outline: as §2

[11] = tested on: southern crabgrass; assay: Test Example 5: herbicidal effect by foliage application, plastic box (Table 20, symbol F); type: in vivo, southern crabgrass (Digitaria ciliaris); conditions: foliage application, 320 g/ha, three weeks after application
Outline: (§3)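 Plants sown in sterilized diluvial soil and grown 14 days in a greenhouse at 25° C to 30° C, then sprayed on the foliage with the compound's emulsion diluted in water to a predetermined herbicide amount. Injury to weeds and crops scored three weeks after application on a visual rating scale.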

[12] = tested on: green foxtail; assay: Test Example 5: herbicidal effect by foliage application, plastic box (Table 20, symbol G); type: in vivo, green foxtail (Setaria viridis); conditions: foliage application, 320 g/ha, three weeks after application
Outline: as §3

[13] = tested on: barnyard grass; assay: Test Example 5: herbicidal effect by foliage application, plastic box (Table 20, symbol H); type: in vivo, barnyard grass (Echinochloa crus-galli); conditions: foliage application, 320 g/ha, three weeks after application
Outline: as §3

[14] = tested on: windgrass; assay: Test Example 5: herbicidal effect by foliage application, plastic box (Table 20, symbol L); type: in vivo, windgrass (Apera spica-venti); conditions: foliage application, 320 g/ha, three weeks after application
Outline: as §3

[15] = tested on: lambsquarters; assay: Test Example 5: herbicidal effect by foliage application, plastic box (Table 20, symbol O); type: in vivo, lambsquarters (Chenopodium album); conditions: foliage application, 320 g/ha, three weeks after application
Outline: as §3

[16] = tested on: chickweed; assay: Test Example 5: herbicidal effect by foliage application, plastic box (Table 20, symbol P); type: in vivo, common chickweed (Stellaria media); conditions: foliage application, 320 g/ha, three weeks after application
Outline: as §3

[17] = tested on: persian speedwell; assay: Test Example 5: herbicidal effect by foliage application, plastic box (Table 20, symbol R); type: in vivo, Persian speedwell (Veronica persica); conditions: foliage application, 320 g/ha, three weeks after application
Outline: as §3

CCCC(=O)Oc1c(C)nn(C)c(=O)c1-c1c(-c2ccc(OC)cc2)sc2cc(OC)ccc12 [3-069]
Herbicidal effect, C: oval-leafed pondweed [1]: 2 (Herbicidal rate of 20% or more and less than 40%)
herbicidal effect rating, C: oval-leafed pondweed [2]: 4 (Herbicidal rate of 70% or more and less than 90%)
herbicidal effect on Chinese sprangletop (D) ([3]; 320 g/ha): 0 (Herbicidal rate of 5% or less (almost no effect))
herbicidal effect on rice flat sedge (E) ([4]; 320 g/ha): 3 (Herbicidal rate of 40% or more and less than 70%)
F: southern crabgrass, herbicidal effect grade [5]: 0 (Herbicidal rate of 5% or less (almost no effect))
L: windgrass, herbicidal effect grade [6]: 0 (Herbicidal rate of 5% or less (almost no effect))
M: velvetleaf, herbicidal effect grade [7]: 0 (Herbicidal rate of 5% or less (almost no effect))
N: redroot pigweed, herbicidal effect grade [8]: 0 (Herbicidal rate of 5% or less (almost no effect))
O: lambsquarters, herbicidal effect grade [9]: 0 (Herbicidal rate of 5% or less (almost no effect))
Q: false cleavers, herbicidal effect grade [10]: 0 (Herbicidal rate of 5% or less (almost no effect))
F: southern crabgrass, herbicidal effect grade [11]: 0 (Herbicidal rate of 5% or less (almost no effect))
G: green foxtail, herbicidal effect grade [12]: 0 (Herbicidal rate of 5% or less (almost no effect))
H: barnyard grass, herbicidal effect grade [13]: 2 (Herbicidal rate of 20% or more and less than 40%)
L: windgrass, herbicidal effect grade [14]: 3 (Herbicidal rate of 40% or more and less than 70%)
O: lambsquarters, herbicidal effect grade [15]: 5 (Herbicidal rate of 90% or more (almost completely withered))
P: chickweed, herbicidal effect grade [16]: 5 (Herbicidal rate of 90% or more (almost completely withered))
R: persian speedwell, herbicidal effect grade [17]: 5 (Herbicidal rate of 90% or more (almost completely withered))

CCCC(=O)Oc1c(C)nn(C)c(=O)c1-c1c(-c2ccc(F)cc2)sc2cc(F)ccc12 [3-002]
Herbicidal effect, C: oval-leafed pondweed [1]: 4 (Herbicidal rate of 70% or more and less than 90%)
herbicidal effect rating, C: oval-leafed pondweed [2]: 4 (Herbicidal rate of 70% or more and less than 90%)
herbicidal effect on D: Chinese sprangletop [3]: 0 (Herbicidal rate of 5% or less (almost no effect))
herbicidal effect on E: rice flat sedge [4]: 3 (Herbicidal rate of 40% or more and less than 70%)
herbicidal effect, F: southern crabgrass [5]: 0 (Herbicidal rate of 5% or less (almost no effect))
herbicidal effect, L: windgrass [6]: 3 (Herbicidal rate of 40% or more and less than 70%)
herbicidal effect, M: velvetleaf [7]: 0 (Herbicidal rate of 5% or less (almost no effect))
herbicidal effect, N: redroot pigweed [8]: 5 (Herbicidal rate of 90% or more (almost completely withered))
herbicidal effect, O: lambsquarters [9]: 4 (Herbicidal rate of 70% or more and less than 90%)
herbicidal effect, Q: false cleavers [10]: 1 (Herbicidal rate of 5% or more and less than 20%)
F: southern crabgrass, herbicidal effect grade [11]: 4 (Herbicidal rate of 70% or more and less than 90%)
G: green foxtail, herbicidal effect grade [12]: 4 (Herbicidal rate of 70% or more and less than 90%)
H: barnyard grass, herbicidal effect grade [13]: 3 (Herbicidal rate of 40% or more and less than 70%)
L: windgrass, herbicidal effect grade [14]: 1 (Herbicidal rate of 5% or more and less than 20%)
O: lambsquarters, herbicidal effect grade [15]: 3 (Herbicidal rate of 40% or more and less than 70%)
P: chickweed, herbicidal effect grade [16]: 5 (Herbicidal rate of 90% or more (almost completely withered))
R: persian speedwell, herbicidal effect grade [17]: 5 (Herbicidal rate of 90% or more (almost completely withered))

CCCC(=O)Oc1c(C)nn(C)c(=O)c1-c1c(-c2ccc(F)cc2OC)sc2cc(F)ccc12 [3-010]
Herbicidal effect, C: oval-leafed pondweed [1]: 3 (Herbicidal rate of 40% or more and less than 70%)
herbicidal effect rating, C: oval-leafed pondweed [2]: 4 (Herbicidal rate of 70% or more and less than 90%)
herbicidal effect on D: Chinese sprangletop [3]: 0 (Herbicidal rate of 5% or less (almost no effect))
herbicidal effect on E: rice flat sedge [4]: 4 (Herbicidal rate of 70% or more and less than 90%)
herbicidal effect, F: southern crabgrass [5]: 3 (Herbicidal rate of 40% or more and less than 70%)
herbicidal effect, L: windgrass [6]: 4 (Herbicidal rate of 70% or more and less than 90%)
herbicidal effect, M: velvetleaf [7]: 0 (Herbicidal rate of 5% or less (almost no effect))
herbicidal effect, N: redroot pigweed [8]: 5 (Herbicidal rate of 90% or more (almost completely withered))
herbicidal effect, O: lambsquarters [9]: 5 (Herbicidal rate of 90% or more (almost completely withered))
herbicidal effect, Q: false cleavers [10]: 5 (Herbicidal rate of 90% or more (almost completely withered))
F: southern crabgrass, herbicidal effect grade [11]: 3 (Herbicidal rate of 40% or more and less than 70%)
G: green foxtail, herbicidal effect grade [12]: 5 (Herbicidal rate of 90% or more (almost completely withered))
H: barnyard grass, herbicidal effect grade [13]: 5 (Herbicidal rate of 90% or more (almost completely withered))
L: windgrass, herbicidal effect grade [14]: 5 (Herbicidal rate of 90% or more (almost completely withered))
O: lambsquarters, herbicidal effect grade [15]: 5 (Herbicidal rate of 90% or more (almost completely withered))
P: chickweed, herbicidal effect grade [16]: 5 (Herbicidal rate of 90% or more (almost completely withered))
R: persian speedwell, herbicidal effect grade [17]: 5 (Herbicidal rate of 90% or more (almost completely withered))

CCCC(=O)Oc1c(C)nn(C)c(=O)c1-c1c(-c2ccc(OC)cc2)sc2cc(F)ccc12 [3-008]
Herbicidal effect, C: oval-leafed pondweed [1]: 5 (Herbicidal rate of 90% or more (almost completely withered))
herbicidal effect rating, C: oval-leafed pondweed [2]: 4 (Herbicidal rate of 70% or more and less than 90%)
herbicidal effect on D: Chinese sprangletop [3]: 4 (Herbicidal rate of 70% or more and less than 90%)
herbicidal effect on E: rice flat sedge [4]: 5 (Herbicidal rate of 90% or more (almost completely withered))
herbicidal effect, F: southern crabgrass [5]: 0 (Herbicidal rate of 5% or less (almost no effect))
herbicidal effect, L: windgrass [6]: 0 (Herbicidal rate of 5% or less (almost no effect))
herbicidal effect, M: velvetleaf [7]: 0 (Herbicidal rate of 5% or less (almost no effect))
herbicidal effect, N: redroot pigweed [8]: 5 (Herbicidal rate of 90% or more (almost completely withered))
herbicidal effect, O: lambsquarters [9]: 5 (Herbicidal rate of 90% or more (almost completely withered))
herbicidal effect, Q: false cleavers [10]: 2 (Herbicidal rate of 20% or more and less than 40%)
F: southern crabgrass, herbicidal effect grade [11]: 4 (Herbicidal rate of 70% or more and less than 90%)
G: green foxtail, herbicidal effect grade [12]: 3 (Herbicidal rate of 40% or more and less than 70%)
H: barnyard grass, herbicidal effect grade [13]: 4 (Herbicidal rate of 70% or more and less than 90%)
L: windgrass, herbicidal effect grade [14]: 3 (Herbicidal rate of 40% or more and less than 70%)
O: lambsquarters, herbicidal effect grade [15]: 5 (Herbicidal rate of 90% or more (almost completely withered))
P: chickweed, herbicidal effect grade [16]: 5 (Herbicidal rate of 90% or more (almost completely withered))
R: persian speedwell, herbicidal effect grade [17]: 5 (Herbicidal rate of 90% or more (almost completely withered))

COc1ccccc1-c1sc2cc(F)ccc2c1-c1c(O)c(C)nn(C)c1=O [3-003]
Herbicidal effect, C: oval-leafed pondweed [1]: 5 (Herbicidal rate of 90% or more (almost completely withered))
herbicidal effect rating, C: oval-leafed pondweed [2]: 4 (Herbicidal rate of 70% or more and less than 90%)
herbicidal effect on D: Chinese sprangletop [3]: 3 (Herbicidal rate of 40% or more and less than 70%)
herbicidal effect on E: rice flat sedge [4]: 5 (Herbicidal rate of 90% or more (almost completely withered))
herbicidal effect, F: southern crabgrass [5]: 4 (Herbicidal rate of 70% or more and less than 90%)
herbicidal effect, L: windgrass [6]: 3 (Herbicidal rate of 40% or more and less than 70%)
herbicidal effect, M: velvetleaf [7]: 3 (Herbicidal rate of 40% or more and less than 70%)
herbicidal effect, N: redroot pigweed [8]: 5 (Herbicidal rate of 90% or more (almost completely withered))
herbicidal effect, O: lambsquarters [9]: 4 (Herbicidal rate of 70% or more and less than 90%)
herbicidal effect, Q: false cleavers [10]: 4 (Herbicidal rate of 70% or more and less than 90%)
F: southern crabgrass, herbicidal effect grade [11]: 5 (Herbicidal rate of 90% or more (almost completely withered))
G: green foxtail, herbicidal effect grade [12]: 5 (Herbicidal rate of 90% or more (almost completely withered))
H: barnyard grass, herbicidal effect grade [13]: 5 (Herbicidal rate of 90% or more (almost completely withered))
L: windgrass, herbicidal effect grade [14]: 5 (Herbicidal rate of 90% or more (almost completely withered))
O: lambsquarters, herbicidal effect grade [15]: 4 (Herbicidal rate of 70% or more and less than 90%)
P: chickweed, herbicidal effect grade [16]: 5 (Herbicidal rate of 90% or more (almost completely withered))
R: persian speedwell, herbicidal effect grade [17]: 5 (Herbicidal rate of 90% or more (almost completely withered))
